Source: ChEMBL document CHEMBL4118132, “Novel 5-methyl-2-phenylphenanthridium derivatives as FtsZ-targeting antibacterial agents from structural simplification of natural product sanguinarine” (2018)
In brackets after ≈: the same amount, converted by molar mass.

Columns and labels:
Type in all cases: functional
Staphylococcus aureus [1] = assay: Antibacterial activity against penicillin-resistant Staphylococcus aureus clinical isolate after 24 hrs by broth microdilution method
Bacillus pumilus = assay: Antibacterial activity against penicillin-susceptible Bacillus pumilus ATCC 63202 after 24 hrs by broth microdilution method; conditions: ATCC 63202, 24 h
Escherichia coli = assay: Antibacterial activity against penicillin-susceptible Escherichia coli ATCC 25922 after 24 hrs by broth microdilution method; conditions: ATCC 25922, 24 h
[2] = test system: Staphylococcus epidermidis; assay: Antibacterial activity against penicillin-resistant Staphylococcus epidermidis clinical isolate after 24 hrs by broth microdilution method
Staphylococcus aureus [3] = assay: Antibacterial activity against methicillin-resistant Staphylococcus aureus ATCC 43300 after 24 hrs by broth microdilution method; conditions: ATCC 43300, 24 h
Streptococcus pyogenes [4] = assay: Antibacterial activity against penicillin-susceptible Streptococcus pyogenes after 24 hrs by broth microdilution method
Pseudomonas aeruginosa = assay: Antibacterial activity against penicillin-susceptible Pseudomonas aeruginosa ATCC 27853 after 24 hrs by broth microdilution method; conditions: ATCC 27853, 24 h
Staphylococcus aureus [5] = assay: Antibacterial activity against penicillin-susceptible Staphylococcus aureus ATCC 25923 after 24 hrs by broth microdilution method; conditions: ATCC 25923, 24 h
Bacillus subtilis = assay: Antibacterial activity against penicillin-susceptible Bacillus subtilis ATCC 9372 after 24 hrs by broth microdilution method; conditions: ATCC 9372, 24 h
Streptococcus pyogenes [6] = assay: Antibacterial activity against penicillin-resistant Streptococcus pyogenes after 24 hrs by broth microdilution method
Staphylococcus aureus [7] = assay: Bactericidal activity against penicillin-susceptible Staphylococcus aureus ATCC 25923 after 24 hrs by flat colony counting method; conditions: ATCC 25923, 24 h
Staphylococcus aureus [8] = assay: Potency index, ratio of ciprofloxacin MIC to test compound MIC for penicillin-susceptible Staphylococcus aureus ATCC 25923
Staphylococcus aureus [9] = assay: Potency index, ratio of oxacillin sodium MIC to test compound MIC for penicillin-susceptible Staphylococcus aureus ATCC 25923
Staphylococcus aureus [10] = assay: Potency index, ratio of oxacillin sodium MIC to test compound MIC for methicillin-resistant Staphylococcus aureus ATCC 43300
Staphylococcus aureus [11] = assay: Potency index, ratio of ciprofloxacin MIC to test compound MIC for penicillin-resistant Staphylococcus aureus clinical isolate
Staphylococcus aureus [12] = assay: Potency index, ratio of ciprofloxacin MIC to test compound MIC for methicillin-resistant Staphylococcus aureus ATCC 43300
Staphylococcus aureus [13] = assay: Potency index, ratio of oxacillin sodium MIC to test compound MIC for penicillin-resistant Staphylococcus aureus clinical isolate

Row | SMILES | MIC (Staphylococcus aureus [1]) | MIC (Bacillus pumilus) | MIC (Escherichia coli) | MIC [2] | MIC (Staphylococcus aureus [3]) | MIC (Streptococcus pyogenes [4]) | MIC (Pseudomonas aeruginosa) | MIC (Staphylococcus aureus [5]) | MIC (Bacillus subtilis) | MIC (Streptococcus pyogenes [6]) | MBC (Staphylococcus aureus [7]) | Ratio (Staphylococcus aureus [8]) | Ratio (Staphylococcus aureus [9]) | Ratio (Staphylococcus aureus [10]) | Ratio (Staphylococcus aureus [11]) | Ratio (Staphylococcus aureus [12]) | Ratio (Staphylococcus aureus [13])
1 | COc1cc(/C=C/C(=O)CC(=O)/C=C/c2ccc(O)c(OC)c2)ccc1O [CURCUMIN] | > 64 µg/mL | 32 µg/mL (≈ 86.9 µM) | > 64 µg/mL | > 64 µg/mL | 64 µg/mL (≈ 174 µM) | > 64 µg/mL | > 64 µg/mL | 32 µg/mL (≈ 86.9 µM) | 32 µg/mL (≈ 86.9 µM) |  |  |  |  |  |  |  | 
2 | COc1cc(-c2ccc(-c3ccccc3)cc2)cc2c3ccccc3c[n+](C)c12.[Cl-] | 4 µg/mL | 2 µg/mL | > 64 µg/mL | 8 µg/mL | 4 µg/mL | 1 µg/mL | > 64 µg/mL | 1 µg/mL | 2 µg/mL | 16 µg/mL | 16 µg/mL |  |  |  |  |  | 
3 | COc1cc(-c2cccc(C(F)(F)F)c2)cc2c3ccccc3c[n+](C)c12.[Cl-] | 8 µg/mL | 4 µg/mL | > 64 µg/mL | 4 µg/mL | 8 µg/mL | 4 µg/mL | > 64 µg/mL | 2 µg/mL | 4 µg/mL | 8 µg/mL | 32 µg/mL |  |  |  |  |  | 
4 | Cc1cc(-c2ccccc2C(F)(F)F)cc2c3ccccc3c[n+](C)c12.[Cl-] | 1 µg/mL | 2 µg/mL | > 64 µg/mL | 0.5 µg/mL | 1 µg/mL | 2 µg/mL | > 64 µg/mL | 0.5 µg/mL | 0.5 µg/mL | 2 µg/mL | 32 µg/mL | 8 - 133 | 4 - 67 | 16 - 256 | 4 - 64 | 4 - 164 | 16 - 256
5 | COc1ccc(-c2cc(C)c3c(c2)c2ccccc2c[n+]3C)cc1.[Cl-] | 4 µg/mL | 4 µg/mL | > 64 µg/mL | 2 µg/mL | 4 µg/mL | 8 µg/mL | > 64 µg/mL | 0.5 µg/mL | 2 µg/mL | 8 µg/mL | > 64 µg/mL | 8 - 133 | 4 - 67 | 16 - 256 | 4 - 64 | 4 - 164 | 16 - 256
6 | Cc1ccc(-c2cc(C)c3c(c2)c2ccccc2c[n+]3C)cc1.[Cl-] | 1 µg/mL | 2 µg/mL | > 64 µg/mL | 2 µg/mL | 2 µg/mL | 4 µg/mL | > 64 µg/mL | 0.5 µg/mL | 0.5 µg/mL | 4 µg/mL | 32 µg/mL | 8 - 133 | 4 - 67 | 16 - 256 | 4 - 64 | 4 - 164 | 16 - 256
7 | C[n+]1cc2ccccc2c2cc(-c3ccccc3C(F)(F)F)ccc21.[Cl-] | 32 µg/mL | 32 µg/mL | > 64 µg/mL | 32 µg/mL | 32 µg/mL | 64 µg/mL | > 64 µg/mL | 16 µg/mL | 32 µg/mL | 32 µg/mL | > 64 µg/mL |  |  |  |  |  | 
8 | Cc1cc(-c2cccc(C(F)(F)F)c2)cc2c3ccccc3c[n+](C)c12.[Cl-] | 0.5 µg/mL | 0.5 µg/mL | > 64 µg/mL | 0.25 µg/mL | 1 µg/mL | 1 µg/mL | > 64 µg/mL | 0.25 µg/mL | 0.25 µg/mL | 2 µg/mL | 16 µg/mL | 8 - 133 | 4 - 67 | 16 - 256 | 4 - 64 | 4 - 164 | 16 - 256
9 | Cc1onc(-c2ccccc2)c1C(=O)N[C@@H]1C(=O)N2[C@@H]1SC(C)(C)[C@@H]2C(=O)[O-].[Na+] | > 64 µg/mL | 32 µg/mL | > 64 µg/mL | > 64 µg/mL | > 64 µg/mL | 1 µg/mL | > 64 µg/mL | 4 µg/mL | 4 µg/mL | > 64 µg/mL |  |  |  |  |  |  | 
10 | C[n+]1cc2ccccc2c2cc(-c3ccc(OC(F)(F)F)cc3)ccc21.[Cl-] | 64 µg/mL | 8 µg/mL | > 64 µg/mL | 16 µg/mL | 64 µg/mL | 4 µg/mL | > 64 µg/mL | 4 µg/mL | 2 µg/mL | 32 µg/mL | 64 µg/mL |  |  |  |  |  | 
11 | COc1cc(-c2ccc(C)cc2)cc2c3ccccc3c[n+](C)c12.[Cl-] | 16 µg/mL | 2 µg/mL | > 64 µg/mL | 16 µg/mL | 4 µg/mL | 2 µg/mL | > 64 µg/mL | 4 µg/mL | 0.5 µg/mL | 8 µg/mL | 64 µg/mL |  |  |  |  |  | 
12 | COc1ccc(-c2cc(OC)c3c(c2)c2ccccc2c[n+]3C)cc1.[Cl-] | 64 µg/mL | 8 µg/mL | > 64 µg/mL | 16 µg/mL | 32 µg/mL | 4 µg/mL | > 64 µg/mL | 16 µg/mL | 2 µg/mL | 8 µg/mL | > 64 µg/mL |  |  |  |  |  | 
13 | C[n+]1cc2ccccc2c2cc(-c3cccc(C(F)(F)F)c3)ccc21.[Cl-] | 16 µg/mL | 16 µg/mL | > 64 µg/mL | 8 µg/mL | 16 µg/mL | 16 µg/mL | > 64 µg/mL | 8 µg/mL | 16 µg/mL | 8 µg/mL | > 64 µg/mL |  |  |  |  |  | 
14 | COc1ccc(-c2ccc3c(c2)c2ccccc2c[n+]3C)cc1.[Cl-] | 64 µg/mL | 16 µg/mL | > 64 µg/mL | 64 µg/mL | 64 µg/mL | 4 µg/mL | > 64 µg/mL | 4 µg/mL | 4 µg/mL | 16 µg/mL | > 64 µg/mL |  |  |  |  |  | 
15 | C[n+]1cc2ccccc2c2cc(-c3ccc(-c4ccccc4)cc3)ccc21.[Cl-] | 8 µg/mL | 16 µg/mL | > 64 µg/mL | > 64 µg/mL | 64 µg/mL | 2 µg/mL | > 64 µg/mL | 8 µg/mL | 8 µg/mL | 64 µg/mL | > 64 µg/mL |  |  |  |  |  | 
16 | C[n+]1cc2ccccc2c2cc(-c3ccc(C(F)(F)F)cc3)ccc21.[Cl-] | 16 µg/mL | 8 µg/mL | > 64 µg/mL | > 64 µg/mL | 16 µg/mL | 2 µg/mL | > 64 µg/mL | 8 µg/mL | 4 µg/mL | 16 µg/mL | > 64 µg/mL |  |  |  |  |  | 
17 | Cc1cc(-c2ccccc2)cc2c3ccccc3c[n+](C)c12.[Cl-] | 2 µg/mL | 4 µg/mL | > 64 µg/mL | 4 µg/mL | 2 µg/mL | 2 µg/mL | > 64 µg/mL | 1 µg/mL | 1 µg/mL | 2 µg/mL | 32 µg/mL | 8 - 133 | 4 - 67 | 16 - 256 | 4 - 64 | 4 - 164 | 16 - 256
18 | COc1cc(-c2ccccc2C(F)(F)F)cc2c3ccccc3c[n+](C)c12.[Cl-] | 16 µg/mL | 16 µg/mL | > 64 µg/mL | 16 µg/mL | 16 µg/mL | 16 µg/mL | > 64 µg/mL | 8 µg/mL | 16 µg/mL | 16 µg/mL | > 64 µg/mL |  |  |  |  |  | 
19 | COc1cc(-c2ccccc2)cc2c3ccccc3c[n+](C)c12.[Cl-] | 64 µg/mL | 4 µg/mL | > 64 µg/mL | 4 µg/mL | 8 µg/mL | 2 µg/mL | > 64 µg/mL | 16 µg/mL | 1 µg/mL | 8 µg/mL | > 64 µg/mL |  |  |  |  |  | 
20 | Cc1ccc(-c2ccc3c(c2)c2ccccc2c[n+]3C)cc1.[Cl-] | 16 µg/mL | 8 µg/mL | > 64 µg/mL | 32 µg/mL | 16 µg/mL | 4 µg/mL | > 64 µg/mL | 8 µg/mL | 2 µg/mL | 16 µg/mL | > 64 µg/mL |  |  |  |  |  | 
21 | COc1cc(-c2ccc(C(F)(F)F)cc2)cc2c3ccccc3c[n+](C)c12.[Cl-] | 8 µg/mL | 2 µg/mL | > 64 µg/mL | 8 µg/mL | 4 µg/mL | 0.5 µg/mL | > 64 µg/mL | 2 µg/mL | 1 µg/mL | 8 µg/mL | 32 µg/mL |  |  |  |  |  | 
22 | C[n+]1cc2ccccc2c2cc(-c3ccccc3)ccc21.[Cl-] | 64 µg/mL | 16 µg/mL | > 64 µg/mL | 16 µg/mL | 16 µg/mL | 4 µg/mL | > 64 µg/mL | 32 µg/mL | 4 µg/mL | 16 µg/mL | > 64 µg/mL |  |  |  |  |  | 
23 | COc1cc(-c2ccc(OC(F)(F)F)cc2)cc2c3ccccc3c[n+](C)c12.[Cl-] | 8 µg/mL | 2 µg/mL | > 64 µg/mL | 16 µg/mL | 4 µg/mL | 2 µg/mL | > 64 µg/mL | 1 µg/mL | 4 µg/mL | 16 µg/mL | 32 µg/mL |  |  |  |  |  | 
